From PMC4762374 (MedChemComm, 2015)

Key:
[1] = test system: M. vaccae; assay: Kirby-Bauer antibacterial agar diffusion assay; type: cell-based
[2] = target: NDM-1 (Purified) (Klebsiella pneumoniae, UniProt C7C422); assay: In vitro β-lactamase inhibition screening, NDM-1; type: biochemical; conditions: for inhibition of NDM-1 (in words): class B enzymes, effect of N-thiolation
[3] = test system: M.tb (H37Rv); assay: Microplate alamar blue assay; type: cell-based, Mycobacterium tuberculosis; conditions: against M.tb
[4] = target: CTX-M-14 (Purified) (Escherichia coli, UniProt Q9L5C7); assay: In vitro β-lactamase inhibition screening, CTX-M-14; type: biochemical

NDM-1 (Purified), sequence (C7C422 29-270 limits assumed): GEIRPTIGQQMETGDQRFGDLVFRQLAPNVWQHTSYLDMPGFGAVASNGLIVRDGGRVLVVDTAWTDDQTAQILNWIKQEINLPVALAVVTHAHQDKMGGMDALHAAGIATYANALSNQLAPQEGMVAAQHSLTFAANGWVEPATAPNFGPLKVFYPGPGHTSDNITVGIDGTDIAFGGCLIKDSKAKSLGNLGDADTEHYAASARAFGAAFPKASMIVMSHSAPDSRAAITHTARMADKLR

Structure (SMILES): CSN1C(=O)[C@@H](NC(=O)COc2ccccc2)[C@@H]1N(OCc1ccccc1)C(=O)c1ccccc1 (racemic) [Compound 24a]
- activity in the agar studies (in words) [1]: not very active

Structure (SMILES): CSN1C(=O)[C@@H](NC(=O)COc2ccccc2)[C@@H]1N(OCc1ccccc1)C(=O)c1cc([N+](=O)[O-])cc(C(F)(F)F)c1 (racemic) [Compound 24b]
- inhibition of NDM-1 (in words) [2]: potent inhibitor

Structure (SMILES): CC(C)(C)[Si](C)(C)N1C(=O)CC1N(OCc1ccccc1)C(=O)c1ccccc1 (centres unmarked) [Compound 6]
- activity in the agar studies (in words) [1]: not very active

Structure (SMILES): CCOc1ccc(C(=O)N(OCc2ccccc2)C2CC(=O)N2)cc1 (centres unmarked) [Compound 7b]
- inhibition of NDM-1 (in words) [2]: inactive

Structure (SMILES): C=CCON(C(=O)c1ccc([N+](=O)[O-])cc1)C1CC(=O)N1 (centres unmarked) [Compound 7c]
- inhibition of NDM-1 (in words) [2]: inactive

Structure (SMILES): CCOc1ccc(C(=O)N(OCc2ccccc2)C2CC(=O)N2SC)cc1 (centres unmarked) [Compound 8b]
- inhibition of NDM-1 (in words) [2]: potent inhibitor

Structure (SMILES): C=CCON(C(=O)c1ccc([N+](=O)[O-])cc1)C1CC(=O)N1SC (centres unmarked) [Compound 8c]
- inhibition of NDM-1 (in words) [2]: potent inhibitor

Structure (SMILES): C[C@@H](O[Si](C)(C)C(C)(C)C)[C@H]1C(=O)N[C@@H]1N(OCc1ccccc1)C(=O)c1ccccc1 [Compound 11]
- anti-TB activity (in words) [3]: did not exhibit noticeable anti-TB activity

Structure (SMILES): C[C@@H](O)[C@H]1C(=O)N[C@@H]1N(OCc1ccccc1)C(=O)c1ccccc1 [Compound 12]
- anti-TB activity (in words) [3]: inactive
- β-lactamase inhibitory activity (in words) ([4]; after silyl removal, compared with CTX-M-14-directed compound 13): inactive

Structure (SMILES): CSN1C(=O)[C@H]([C@@H](C)O[Si](C)(C)C(C)(C)C)[C@H]1N(OCc1ccccc1)C(=O)c1ccccc1 [Compound 13]
- anti-TB activity (in words) [3]: good activity
- activity in the agar studies (in words) [1]: not very active

Structure (SMILES): O=C(Cc1ccccc1)N[C@@H]1C(=O)N[C@H]1N(OCc1ccccc1)C(=O)c1ccccc1 [Compound 18]
- Ki [2]: > 160000 nM
- Ki [4]: 50 nM
